These results are taken from patent US9243037B2, “Gramicidin a mutants that function as antibiotics with improved solubility and reduced toxicity” (Trustees of Boston College, priority 2011, dated 2016).

Read-outs that look alike come from different tables or passages of the source. Where a SMILES comes first, the peptide text is derived from it. [ ]: non-standard residue; d: D form. The star is where a group is joined. dLys(Me3) = C[N+](C)(C)CCCC[C@@H](N)C(=O)O; NHCH2CH2OH = OCCN*; For = O=C* Where only a bound is given, the exact number is not on record here.

The subject of series [1] is human red blood cells (hRBCs). Briefly: Haemoglobin release from human red blood cells. The format is cell-based. The conditions noted are these: for Toxicity HC50: red cells of human. As to the method:
Fresh human red blood cells (hRBCs) were centrifuged at 3500 rpm and washed with PBS buffer until the supernatant was clear. The hRBCs were then resuspended and diluted to a final concentration of 1% (v/v) in PBS and used immediately. 15 μL of serial dilution (2-fold) of peptides in DMSO or DMSO alone as a negative control were added to 1.5 mL of hRBCs in PBS. The resulting mixture was gently shaken to mix well and incubated at 37° C. for 1 hr, followed by centrifugation at 3500 rpm for 10 min using tabletop centrifuge. Aliquots (50 μL) of the supernatant (in triplicates) were transferred into a sterile 96-well plate containing 50 μL of H2O in each well. Release of hemoglobin was monitored at 415 nm using a microtiter plate reader. Percentage hemolysis was calculated using percentage hemolysis=100·(A415, peptide-A415,DMSO)/(A415, complete hemolysis-A415, DMSO), where complete hemolysis is achieved by mixing hRBCs with 1% TritonX-100.

Series [2] has as its system human red blood cells (hRBCs). Briefly: K+ leakage from hRBCs (flame atomic emission). The format is cell-based. As to the method: The rest of supernatant (1.2 mL) from each sample prepared as described in the hemoglobin leakage assay was transferred into a new sterile eppendorf tube and subject to the K+ concentration measurement using a flame-atomic emission spectrometer (λem=766.5 nm, Perkin Elmer Atomic absorption Spectrometer 3100, acetylene/air flame). Three readings were taken for each sample and averaged as final results. The fraction of K+ leakage from hRBCs was calculated as percentage K+ leaked=100·(I776.5,peptide−I776.5,DMSO)/(I776.5,complete lysis−I776.5,DMSO).

A short description of another series: physchem. Type of series: physicochemical. The settings on record: pH 7, aqueous with cosolvent or surfactant or cyclodextrin. As to the method:
Peptide solubility in 10 mM HEPES buffer with 1% DMSO was measured by monitoring tryptophan absorbance. A concentrated (6.0-8.0 mM) peptide stock solution in DMSO was diluted 100 times (5 μL of the stock into 500 jtl of 10 mM HEPES buffer, pH 7.0). The mixture was sonicated for 30 mins and then subject to centrifugation (14,000 rpm, 10 mins) to remove possible precipitate. The supernatant (400 μL) was transferred to a quartz cuvette and the peptide concentration was determined by tryptophan absorbance at 280 nm (ε=22760 M−1 cm-1). The UV/Vis spectra of the supernatant can be seen in FIG. 1 and FIG. 5.

In series [3] the test system is Streptococcus pyogenes (ATCC 19615). The settings on record: ATCC 19615.
In series [4] the test system is Bacillus subtilis (ATCC 663). The conditions noted are these: ATCC 663.
Series [5] deals with Staphylococcus aureus (ATCC 6538). The settings on record: ATCC 6538.

The term solubility (kinetic) denotes solubility judged after dilution from a stock solution rather than from solid. In the case of `CC(C)C[C@@H](NC(=O)[C@H](C)NC(=O)CNC(=O)[C@@H](NC=O)C(C)C)C(=O)N[C@@H](C)C(=O)N[C@@H](C(=O)N[C@H](C(=O)N[C@@H](C(=O)N[C@@H](Cc1c[nH]c2ccccc12)C(=O)N[C@H](CCCC[N+](C)(C)C)C(=O)N[C@@H](Cc1c[nH]c2ccccc12)C(=O)N[C@H](CCCC[N+](C)(C)C)C(=O)N[C@@H](Cc1c[nH]c2ccccc12)C(=O)N[C@H](CCCC[N+](C)(C)C)C(=O)N[C@@H](Cc1c[nH]c2ccccc12)C(=O)NCCO)C(C)C)C(C)C)C(C)C` [10, 12, 14M] (For-VGA[dL]A[dV]V[dV]W[dLys(Me3)]W[dLys(Me3)]W[dLys(Me3)]W-NHCH2CH2OH), in series [1], the HC50 is recorded as >95; the “haemoglobin leakage from hRBCs” value is “[c] HC50 is the peptide concentration required to cause 50% of haemoglobin leakage from human red blood cells compared to the lysis of same amount cells by 1% TritonX-100. No haemoglogin leakage was observed in the cases of 10, 14M, 10, 12M or 10, 12, 14M at the concentration range tested”; the “Toxicity HC50” value is >95 µM. Also, in series [2], the KC50 is >95 and the “Toxicity KC50” value was >95 µM. In “physchem”, this compound yielded a kinetic solubility at 30 min of 55 µM.

One may read the EC50 as the concentration that produces a half-maximal response. Low values mean a more potent agent, high ones a less potent agent. Take `CC(C)C[C@@H](NC(=O)[C@H](C)NC(=O)CNC(=O)[C@@H](NC=O)C(C)C)C(=O)N[C@@H](C)C(=O)N[C@@H](C(=O)N[C@H](C(=O)N[C@@H](C(=O)N[C@@H](Cc1c[nH]c2ccccc12)C(=O)N[C@H](CCCC[N+](C)(C)C)C(=O)N[C@@H](Cc1c[nH]c2ccccc12)C(=O)N[C@H](CCCC[N+](C)(C)C)C(=O)N[C@@H](Cc1c[nH]c2ccccc12)C(=O)N[C@H](CC(C)C)C(=O)N[C@@H](Cc1c[nH]c2ccccc12)C(=O)NCCO)C(C)C)C(C)C)C(C)C` [10, 12M] (For-VGA[dL]A[dV]V[dV]W[dLys(Me3)]W[dLys(Me3)]W[dL]W-NHCH2CH2OH): in series [1], the HC50 is recorded as >10; the “haemoglobin leakage from hRBCs” value is “[c] HC50 is the peptide concentration required to cause 50% of haemoglobin leakage from human red blood cells compared to the lysis of same amount cells by 1% TritonX-100. No haemoglogin leakage was observed in the cases of 10, 14M, 10, 12M or 10, 12, 14M at the concentration range tested”; the “Toxicity HC50” value is >10 µM. In series [2], the KC50 was >10 and the “Toxicity KC50” value was >10 µM. Moreover, the solubility (kinetic) at 30 min in “physchem” is 27 µM. Moreover, in series [3], the EC50 was 1250 nM and the “Minimum Inhibition Concentration S. Pyogenesis” value was > 10 µM.

Take `CC(C)C[C@@H](NC(=O)[C@H](C)NC(=O)CNC(=O)[C@@H](NC=O)C(C)C)C(=O)N[C@@H](C)C(=O)N[C@@H](C(=O)N[C@H](C(=O)N[C@@H](C(=O)N[C@@H](Cc1c[nH]c2ccccc12)C(=O)N[C@H](CCCC[N+](C)(C)C)C(=O)N[C@@H](Cc1c[nH]c2ccccc12)C(=O)N[C@H](CC(C)C)C(=O)N[C@@H](Cc1c[nH]c2ccccc12)C(=O)N[C@H](CCCC[N+](C)(C)C)C(=O)N[C@@H](Cc1c[nH]c2ccccc12)C(=O)NCCO)C(C)C)C(C)C)C(C)C` [10, 14M] (For-VGA[dL]A[dV]V[dV]W[dLys(Me3)]W[dL]W[dLys(Me3)]W-NHCH2CH2OH): in series [1], the HC50 is on record as >24; the “haemoglobin leakage from hRBCs” value is “[c] HC50 is the peptide concentration required to cause 50% of haemoglobin leakage from human red blood cells compared to the lysis of same amount cells by 1% TritonX-100. No haemoglogin leakage was observed in the cases of 10, 14M, 10, 12M or 10, 12, 14M at the concentration range tested”; the “Toxicity HC50” value is >24 µM. In addition, in series [2], the KC50 was 20 and the “Toxicity KC50” value is 20 µM. In the series “physchem”, this compound displayed a solubility (kinetic) at 30 min of 30 µM. The “Minimum Inhibition Concentration B. Subtilius” value in series [4] was 2.5 µM. Moreover, in series [5], the “HC50 printed in the S. Aureus MIC cell” value was 1.25 µM and the “Minimum Inhibition Concentration S. Aureus” value is > 10 µM. Moreover, the “Minimum Inhibition Concentration S. Pyogenesis” value in series [3] came out at 1.25 µM.

On to `CC(C)C[C@@H](NC(=O)[C@H](C)NC(=O)CNC(=O)[C@@H](NC=O)C(C)C)C(=O)N[C@@H](C)C(=O)N[C@@H](C(=O)N[C@H](C(=O)N[C@@H](C(=O)N[C@@H](Cc1c[nH]c2ccccc12)C(=O)N[C@H](CCCC[N+](C)(C)C)C(=O)N[C@@H](Cc1c[nH]c2ccccc12)C(=O)N[C@H](CC(C)C)C(=O)N[C@@H](Cc1c[nH]c2ccccc12)C(=O)N[C@H](CC(C)C)C(=O)N[C@@H](Cc1c[nH]c2ccccc12)C(=O)NCCO)C(C)C)C(C)C)C(C)C` [10M] (For-VGA[dL]A[dV]V[dV]W[dLys(Me3)]W[dL]W[dL]W-NHCH2CH2OH), for which, in series [1], the HC50 is 19 and the “Toxicity HC50” value was found to be 19 µM. In series [2], the KC50 came out at 0.04 and the “Toxicity KC50” value amounted to 0.04 µM. The kinetic solubility at 30 min in the series “physchem” is 4.3 µM. Also, in series [4], the “Minimum Inhibition Concentration B. Subtilius” value was determined as 2.5 µM. Also, the “Minimum Inhibition Concentration S. Aureus” value in series [5] turned out to be 2.5 µM. Also, the “Minimum Inhibition Concentration S. Pyogenesis” value in series [3] worked out at 0.15 µM.

For the compound `CC(C)C[C@@H](NC(=O)[C@H](C)NC(=O)CNC(=O)[C@@H](NC=O)C(C)C)C(=O)N[C@@H](C)C(=O)N[C@@H](C(=O)N[C@H](C(=O)N[C@@H](C(=O)N[C@@H](Cc1c[nH]c2ccccc12)C(=O)N[C@H](CC(C)C)C(=O)N[C@@H](Cc1c[nH]c2ccccc12)C(=O)N[C@H](CCCC[N+](C)(C)C)C(=O)N[C@@H](Cc1c[nH]c2ccccc12)C(=O)N[C@H](CC(C)C)C(=O)N[C@@H](Cc1c[nH]c2ccccc12)C(=O)NCCO)C(C)C)C(C)C)C(C)C` [12MeK] (For-VGA[dL]A[dV]V[dV]W[dL]W[dLys(Me3)]W[dL]W-NHCH2CH2OH), in series [1] (Table 8), the HC50 was >10. In series [2] (Table 8), this compound registered a KC50 of 0.2.

For the compound `CC(C)C[C@@H](NC(=O)[C@H](C)NC(=O)CNC(=O)[C@@H](NC=O)C(C)C)C(=O)N[C@@H](C)C(=O)N[C@@H](C(=O)N[C@H](C(=O)N[C@@H](C(=O)N[C@@H](Cc1c[nH]c2ccccc12)C(=O)N[C@H](CC(C)C)C(=O)N[C@@H](Cc1c[nH]c2ccccc12)C(=O)N[C@H](CC(C)C)C(=O)N[C@@H](Cc1c[nH]c2ccccc12)C(=O)N[C@H](CCCC[N+](C)(C)C)C(=O)N[C@@H](Cc1c[nH]c2ccccc12)C(=O)NCCO)C(C)C)C(C)C)C(C)C` [14M] (For-VGA[dL]A[dV]V[dV]W[dL]W[dL]W[dLys(Me3)]W-NHCH2CH2OH), in series [1], the HC50 is 24 and the “Toxicity HC50” value is 24 µM. Moreover, in series [2], the KC50 is on record as 0.015 and the “Toxicity KC50” value turned out to be 0.015 µM. Besides, in “physchem”, the solubility (kinetic) at 30 min worked out at 3.6 µM. The “Minimum Inhibition Concentration B. Subtilius” value in series [4] was found to be 2.5 µM. Moreover, the “Minimum Inhibition Concentration S. Aureus” value in series [5] was 1.25 to 2.5 µM. For the same compound, the “Minimum Inhibition Concentration S. Pyogenesis” value in series [3] was 0.078 µM.

On to `CC(C)C[C@@H](NC(=O)[C@H](C)NC(=O)CNC(=O)[C@@H](NC=O)C(C)C)C(=O)N[C@@H](C)C(=O)N[C@@H](C(=O)N[C@H](C(=O)N[C@@H](C(=O)N[C@@H](Cc1c[nH]c2ccccc12)C(=O)N[C@H](CC(C)C)C(=O)N[C@@H](Cc1c[nH]c2ccccc12)C(=O)N[C@H](CCCC[N+](C)(C)C)C(=O)N[C@@H](Cc1c[nH]c2ccccc12)C(=O)N[C@H](CCCC[N+](C)(C)C)C(=O)N[C@@H](Cc1c[nH]c2ccccc12)C(=O)NCCO)C(C)C)C(C)C)C(C)C` [1214MeK] (For-VGA[dL]A[dV]V[dV]W[dL]W[dLys(Me3)]W[dLys(Me3)]W-NHCH2CH2OH), for which, in series [2] (Table 8), the KC50 was >10.
